Data taken from US4464378A, “Method of administering narcotic antagonists and analgesics and novel dosage forms containing same” (University of Kentucky Research Foundation, priority 1981, dated 1984).

Experiments:
[1] = 30 μg/rat
[2] = in vivo; conditions: rat, plasma, 0.03 mg; for AUC(0-inf): Area under the blood level curve (AUC ^.infin.0); for AUC(0-inf) / concentration at 1 min / concentration at 0.05 h / concentration at 10 min / concentration at 20 min / concentration at 0.5 h / concentration at 0.75 h / concentration at 1 h / concentration at […] / concentration at 2 h / concentration at 3 h / concentration at 5 min: 30 μg/rat; for concentration at 1 min / concentration at 0.05 h / concentration at 10 min / concentration at 20 min / concentration at 0.5 h / concentration at 0.75 h / concentration at 1 h / concentration at […] / concentration at 2 h / concentration at 3 h / concentration at 5 min: Plasma Level; for concentration at 0.05 h: 3 min; for concentration at 0.5 h: 30 min; for concentration at 0.75 h: 45 min; for concentration at 1 h: 60 min; for concentration at […]: 90 min; for concentration at 2 h: 120 min; for concentration at 3 h: 180 min
[3] = nasal, individual rats I, II, III
[4] = po, Mean, oral (intraduodenal), mean of 3 rats

SMILES: C=CCN1CC[C@]23c4c5ccc(O)c4O[C@H]2C(=O)CC[C@@]3(O)[C@H]1C5 [naloxone]
- absorption via the nasal route compared with the intravenous route ([1]; nasal vs intravenous): as effective as via the intravenous route
- areas under the curve following intravenous and nasal administration, compared ([1]; nasal vs intravenous): not significantly different
- bioavailability when administered nasally compared with intravenously ([1]; nasal vs intravenous): equivalent to the bioavailability of the drug when administered intravenously
- half-life of elimination after nasal administration compared with intravenous ([1]; nasal vs intravenous): comparable to its half-life following intravenous nasal administration
- bioavailability when administered nasally compared with the oral route ([1]; nasal vs oral): vastly superior to its bioavailability by the oral route
- absorption from the nasal mucosa ([1]; nasal): very rapidly absorbed from the nasal mucosa
- absorption from the nasal mucosa into the systemic circulation; intestinal or first pass metabolism ([1]; nasal): rapidly absorbed from the nasal mucosa into the systemic circulation without extensive intestinal or first pass metabolism
- Tmax [2]: ~5 min
- bioavailability [2]: 1.5%
- half-life [2]: 52.1 min
- AUC(0-inf) ([2]; Mean, nasal, mean of 3 rats): 25.3 ng·h/mL
- AUC(0-inf) [2, 3]: 31.7 ng·h/mL
- concentration at 1 min ([2]; Mean, nasal, mean of 3 rats): 23.3 ng/mL
- concentration at 0.05 h ([2]; Mean, nasal, mean of 3 rats): 38.3 ng/mL
- concentration at 10 min ([2]; Mean, nasal, mean of 3 rats): 36 ng/mL
- concentration at 20 min ([2]; Mean, nasal, mean of 3 rats): 19.5 ng/mL
- concentration at 0.5 h ([2]; Mean, nasal, mean of 3 rats): 12 ng/mL
- concentration at 0.75 h ([2]; Mean, nasal, mean of 3 rats): 7.96 ng/mL
- concentration at 1 h ([2]; Mean, nasal, mean of 3 rats): 6.41 ng/mL
- concentration at […] ([2]; Mean, nasal, mean of 3 rats): 3.58 ng/mL
- concentration at 2 h ([2]; Mean, nasal, mean of 3 rats): 2.59 ng/mL
- concentration at 3 h ([2]; Mean, nasal, mean of 3 rats): 1.42 ng/mL
- concentration at 0.05 h [2, 3]: 41.2 ng/mL
- concentration at 5 min [2, 3]: 54.5 ng/mL
- concentration at 10 min [2, 3]: 45.3 ng/mL
- concentration at 20 min [2, 3]: 22.7 ng/mL
- concentration at 0.5 h [2, 3]: 13.5 ng/mL
- concentration at 0.75 h [2, 3]: 9.36 ng/mL
- concentration at 1 h [2, 3]: 8.26 ng/mL
- concentration at […] [2, 3]: 4.79 ng/mL
- concentration at 2 h [2, 3]: 3.65 ng/mL
- concentration at 3 h [2, 3]: 1.95 ng/mL
- half-life ([2]; iv): 59.2 min
- AUC(0-inf) ([2]; iv, individual rats I, II, III): 21.2 ng·h/mL
- AUC(0-inf) ([2]; iv, Mean, mean of 3 rats): 25 ng·h/mL
- concentration at 1 min ([2]; iv, individual rats I, II, III): 102 ng/mL
- concentration at 0.05 h ([2]; iv, individual rats I, II, III): 52.3 ng/mL
- concentration at 5 min ([2]; iv, individual rats I, II, III): 31.4 ng/mL
- concentration at 10 min ([2]; iv, individual rats I, II, III): 15.6 ng/mL
- concentration at 20 min ([2]; iv, individual rats I, II, III): 10.3 ng/mL
- concentration at 0.5 h ([2]; iv, individual rats I, II, III): 7.28 ng/mL
- concentration at 0.75 h ([2]; iv, individual rats I, II, III): 5.47 ng/mL
- concentration at 1 h ([2]; iv, individual rats I, II, III): 4.87 ng/mL
- concentration at […] ([2]; iv, individual rats I, II, III): 3.01 ng/mL
- concentration at 2 h ([2]; iv, individual rats I, II, III): 2.15 ng/mL
- concentration at 3 h ([2]; iv, individual rats I, II, III): 1.25 ng/mL
- concentration at 1 min ([2]; iv, Mean, mean of 3 rats): 111 ng/mL
- concentration at 0.05 h ([2]; iv, Mean, mean of 3 rats): 58 ng/mL
- concentration at 5 min ([2]; iv, Mean, mean of 3 rats): 37.5 ng/mL
- concentration at 10 min ([2]; iv, Mean, mean of 3 rats): 19.6 ng/mL
- concentration at 20 min ([2]; iv, Mean, mean of 3 rats): 11.6 ng/mL
- concentration at 0.5 h ([2]; iv, Mean, mean of 3 rats): 8.34 ng/mL
- concentration at 0.75 h ([2]; iv, Mean, mean of 3 rats): 6.74 ng/mL
- concentration at 1 h ([2]; iv, Mean, mean of 3 rats): 5.41 ng/mL
- concentration at […] ([2]; iv, Mean, mean of 3 rats): 3.96 ng/mL
- concentration at 2 h ([2]; iv, Mean, mean of 3 rats): 2.86 ng/mL
- concentration at 3 h ([2]; iv, Mean, mean of 3 rats): 1.47 ng/mL
- AUC(0-inf) [2, 4]: 0.367 ng·h/mL
- concentration at 5 min [2, 4]: 0.37 ng/mL
- concentration at 10 min [2, 4]: 0.34 ng/mL
- concentration at 0.75 h [2, 4]: 0.11 ng/mL
- concentration at 1 h [2, 4]: 0.09 ng/mL
- concentration at 2 h [2, 4]: 0.06 ng/mL
